Measurements taken from patent publication US11724980B2, “Quinones having high capacity retention for use as electrolytes in aqueous redox flow batteries” (President and Fellows of Harvard College, priority 2018, dated 2023).
Where two headings read alike, the source gives them in different places.

Experiments:
physchem = type: physicochemical; settings: for solubility: thermodynamic from solid
Procedure: Solubility limits of all DBEAQ isomers were measured in their oxidized forms by adding the potassium salt of DBEAQ (prepared by reacting DBEAQ with potassium hydroxide in water) until no further solid could be dissolved. After filtering the mixture through a PTFE 0.45 μm syringe filter, a saturated solution of DBEAQ in KOH was obtained. The saturated solution was then diluted by a known amount, and the concentration was evaluated by UV-Vis (Ocean Optics Flame-S Spectrometer Assembly) at 280 and 364 nm. […]
The solubility limit of DPPEAQ was measured in the oxidized form by adding the potassium salt of DPPEAQ (prepared by reacting DPPEAQ with potassium hydroxide in water) until no further solid could be dissolved. The mixture was adjusted to pH 9. After filtering the mixture through a PTFE 0.45 μm syringe filter, a saturated solution of DPPEAQ at pH 9 was obtained. The saturated solution was then diluted by a known amount while maintaining a pH of 9, and the concentration was evaluated by UV-Vis (Agilent Cary 60 spectrophotometer). The concentration was calculated according to a pre-calibrated absorbance-concentration curve of known concentrations of DPPEAQ at pH 9.

[1] = Rotating disk electrode study with Levich analysis; type: physicochemical; settings: 5 mM in 1 M KOH, Levich plot
Procedure: Glassy carbon was used as the working electrode for all three-electrode CV tests. RDE experiments were conducted using a Pine Instruments Modulated Speed Rotator AFMSRCE equipped with a 5 mm diameter glassy carbon working electrode, a Ag/AgCl reference electrode (BASi, pre-soaked in 3 M NaCl solution), and a graphite counter electrode. The electrode was rotated at a specific speed while the voltage was linearly swept from −0.4 to −0.11 V vs. Ag/AgCl (FIG. 4A). […]. RDE experiments were conducted using a Pine Instruments Modulated Speed Rotator AFMSRCE equipped with a 5 mm diameter glassy carbon working electrode, a Ag/AgCl reference electrode (BASi, pre-soaked in a 3 M KCl solution), and a graphite counter electrode. […]

[2] = Unbalanced compositionally-symmetric cell cycling
Procedure: As a direct probe of the effect of O-alkylation of anthraquinone on its chemical stability, 2,6-DBEAQ was cycled potentiostatically in a volumetrically unbalanced compositionally-symmetric cell configuration.
Potentiostatic symmetric cell cycling was performed according to a reported procedure^8 in order to assess the temporal chemical stability of DBEAQ, independent of any variations in apparent capacity as a result of changes to membrane resistance, and in a configuration where there is negligible water or reactant crossover due to the same DBEAQ concentration being used in both electrolytes. […] 5 mL of the resulting electrolyte was used as the capacity-limiting side of a volumetrically unbalanced compositionally-symmetric cell, while the remaining 10 mL was used as the non-capacity-limiting side, i.e., with twice the nominal capacity of the capacity-limiting side. […].
The cycling stability of the DPPEAQ electrolyte was also studied by a previously published symmetric cell method.^24 Although the oxidized form of DPPEAQ is readily soluble at pH 9, proton-coupled electron transfer raises the pH of the electrolyte when it is reduced. Such pH fluctuations can produce misleading results in symmetric cell testing unless the starting pH is above the cutoff point for proton-coupled electron transfer.

Q: For `O=C([O-])CCCOc1ccc2c(c1)C(=O)c1ccc(OCCCC(=O)[O-])cc1C2=O.[K+].[K+]` [2,6-DBEAQ, 4,4′-((9,10-anthraquinone-2,6-diyl)dioxy)dibutyric acid], which “Maximum Solubility” value (physchem; KOH, pH 12) is on record?
A: 600 mM

Q: What about the solubility (physchem; pH 9, aqueous buffer, pH 9, read-out: solubility) of the same compound?
A: < 0.035 M

Q: And the solubility (physchem; pH 12, aqueous buffer, KOH, pH 12, read-out: Maximum Solubility)?
A: > 0.5 M

Q: And the solubility (physchem; pH 12, aqueous buffer, pH 12 (value in brackets), read-out: Solubility (M) at pH 14 (pH 12))?
A: 0.6 M

Q: And the solubility (physchem; pH 14, aqueous buffer, KOH, pH 14, read-out: Maximum Solubility)?
A: > 1 M

Q: What about the solubility (physchem; pH 14, aqueous buffer, pH 14 (value outside brackets), read-out: Solubility (M) at pH 14 (pH 12)) of the same compound?
A: 1.1 M

Q: And the “diffusion coefficient for the oxidized form” value [1]?
A: 1.58×10^−6 cm^2/s

Q: What about the “temporal capacity fade rate” value ([2]; pH 14 (1 M KOH), 0.10 M (2,6-DBEAQ also 0.65 M)) of the same compound?
A: < 0.01 %/day

Q: What about the “temporal capacity fade rate” value ([2]; pH 14, 0.10 and 0.65 M) of the same compound?
A: < 3.0 %/year
